# Laboratory results as given in patent publication US12460243B2, “Mass spectrometry determination of the sensitivity or resistance of bacteria to an antibiotic” (priority 2019, dated 2025).
# “And” between values parts separate entries of the source, which are not always exact repeats. Equal values may be shown once. Bridge positions count the residues as written; N and C are the ends. Square brackets hold non-standard residues; d marks the D form. Peptide text beside a SMILES is read from it. * marks the point of attachment. Heptanoyl(6-Me) = CC(C)CCCCC(=O)*; Dab = NCC[C@H](N)C(=O)O
# What was measured:
# Format in all cases: cell-based
# Acinetobacter baumannii [1] = experiment: MALDI-TOF detection of released characteristic proteins, 10 min at 50° C., filtration (example V); conditions: colistin 20 μg/ml, 10 min 50° C.
# Experimental: (§1) The tests were carried out using the following steps: • preparing a suspension of microorganism at 2 McF in water (suspension medium, bioMérieux reference 70700), • preparing a solution of colistin sulfate (Sigma reference C4461) at a concentration of 2× in pure water (taking into account the colistin titer indicated by the manufacturer).
# (§2) The strains of A. baumannii (AB_S044, AB_S045, AB_S046, AB_R-E105) and of Pseudomonas aeruginosa (PA_S062, PA_SE64, PA_RE66, PA_RE68) are analyzed with the protocol described in example V. Thus, they are incubated in the presence of 20 μg/ml of colistin.
# Pseudomonas aeruginosa [2] = experiment: as above; conditions: colistin 20 μg/ml, 10 min 50° C.
# Experimental: as §1, §2
# Escherichia coli [3] = experiment: MALDI-TOF detection of released characteristic proteins, 10 min at 50° C., filtration (examples V, VI); conditions: for Aire sous la courbe des pics observés, Protéine chaperonne de stress acide HdeB / Aire sous la courbe des pics observés, Protéine ribosomique 50S L29 / Aire sous la courbe des pics observés, Protéine ribosomique 50S L31 / Aire sous la courbe des pics observés, Protéine ribosomique 50S L33 / Aire sous la courbe des pics observés, SPIRAP (Stationary-Phase-Induced Ribosome-Associated Protein) / Ratio par protéine HdeB/Colistine / Ratio par protéine L29/Colistine / Ratio par protéine L31/Colistine / Ratio par protéine L33/Colistine / Ratio par protéine SIRAP/Colistine / Somme des ratios / sensitivity or resistance to colistin by MALDI-TOF: colistin 2.5 mg/ml, 10 min 50° C.; for classification by sum of the ratios against threshold: threshold 0.30
# Experimental: as §1
# In the context of this example, the tests were carried out with the method of the present invention to determine the sensitivity or resistance of several bacteria of several strains such as in example V and comprising the following steps: • measuring the intensity of each peak observed, • finding a ratio between the sum of the intensities of the protein peaks of the microorganism and at least 1 peak of colistin. • determining the status, resistant or sensitive to colistin, as a function of the sum of the ratios obtained and of a threshold fixed for each species. • a resistant microorganism will have a low ratio and a sensitive microorganism will have a high ratio.
# Firstly, the same strains of E. coli (EC_S10, EC_S15, EC_R16, EC_R17), used previously, are studied and the proteins characteristic of the species E. coli are analyzed. They are the following proteins: the stationary-phase-induced ribosome-associated protein (SPIRAP), the acid stress chaperone HdeB and the 50S ribosomal proteins L29, L31 and L33.
# Escherichia coli [4] = experiment: microdilution in broth (reference method)
# Experimental: (§3) So as to be able to evaluate the efficacy of the method according to the invention, the different strains were analyzed beforehand by microdilution in broth in order to determine their status (sensitive or resistant). This method is regarded as the reference method by the CLSI and EUCAST.
# Klebsiella pneumoniae = experiment: microdilution in broth (reference method)
# Experimental: as §3
# Acinetobacter baumannii [5] = experiment: microdilution in broth (reference method); conditions: by microdilution in broth
# Experimental: as §3
# (§4) As before, the different strains were analyzed beforehand by microdilution in broth in order to determine their status (sensitive or resistant).
# Pseudomonas aeruginosa [6] = experiment: microdilution in broth (reference method); conditions: by microdilution in broth
# Experimental: as §3, §4
compound,measurement,setting,value
CC(C)CCCCC(=O)N[C@@H](CCN)C(=O)N[C@H](C(=O)N[C@@H](CCN)C(=O)N[C@H]1CCNC(=O)[C@H]([C@@H](C)O)NC(=O)[C@H](CCN)NC(=O)[C@H](CCN)NC(=O)[C@H](CC(C)C)NC(=O)[C@@H](CC(C)C)NC(=O)[C@H](CCN)NC1=O)[C@@H](C)O [colistin] ({Heptanoyl(6-Me)}-[Dab]T[Dab][Dab][Dab][dL]L[Dab][Dab]T; lactam 4-C),sensitivity or resistance to colistin by MALDI-TOF,Acinetobacter baumannii [1]; strain AB_R-E105,resistant
same,sensitivity or resistance to colistin by MALDI-TOF,Acinetobacter baumannii [1]; strain AB_S044,sensitive
same,sensitivity or resistance to colistin by MALDI-TOF,Acinetobacter baumannii [1]; strain AB_S045,sensitive
same,sensitivity or resistance to colistin by MALDI-TOF,Acinetobacter baumannii [1]; strain AB_S046,sensitive
same,sensitivity or resistance to colistin by MALDI-TOF,Pseudomonas aeruginosa [2]; strain PA_RE66,resistant
same,sensitivity or resistance to colistin by MALDI-TOF,Pseudomonas aeruginosa [2]; strain PA_RE68,resistant
same,sensitivity or resistance to colistin by MALDI-TOF,Pseudomonas aeruginosa [2]; strain PA_S062,sensitive
same,sensitivity or resistance to colistin by MALDI-TOF,Pseudomonas aeruginosa [2]; strain PA_SE64,sensitive
same,"Aire sous la courbe des pics observés, Protéine chaperonne de stress acide HdeB",Escherichia coli [3]; strain EC-R16,0.00 unité arbitraire
same,"Aire sous la courbe des pics observés, Protéine ribosomique 50S L29",Escherichia coli [3]; strain EC-R16,0.00 unité arbitraire
same,"Aire sous la courbe des pics observés, Protéine ribosomique 50S L31",Escherichia coli [3]; strain EC-R16,0.00 unité arbitraire
same,"Aire sous la courbe des pics observés, Protéine ribosomique 50S L33",Escherichia coli [3]; strain EC-R16,0.00 unité arbitraire
same,"Aire sous la courbe des pics observés, SPIRAP (Stationary-Phase-Induced Ribosome-Associated Protein)",Escherichia coli [3]; strain EC-R16,0.00 unité arbitraire
same,Ratio par protéine HdeB/Colistine,Escherichia coli [3]; strain EC-R16,0.00
same,Ratio par protéine L29/Colistine,Escherichia coli [3]; strain EC-R16,0.00
same,Ratio par protéine L31/Colistine,Escherichia coli [3]; strain EC-R16,0.00
same,Ratio par protéine L33/Colistine,Escherichia coli [3]; strain EC-R16,0.00
same,Ratio par protéine SIRAP/Colistine,Escherichia coli [3]; strain EC-R16,0.00
same,Somme des ratios,Escherichia coli [3]; strain EC-R16,0.00
same,classification by sum of the ratios against threshold,Escherichia coli [3]; strain EC-R16,resistant (the strains whose sum of the ratios is strictly below 0.30 will be considered as resistant)
same,"Aire sous la courbe des pics observés, Protéine chaperonne de stress acide HdeB",Escherichia coli [3]; strain EC-R17,0.00 unité arbitraire
same,"Aire sous la courbe des pics observés, Protéine ribosomique 50S L29",Escherichia coli [3]; strain EC-R17,0.00 unité arbitraire
same,"Aire sous la courbe des pics observés, Protéine ribosomique 50S L31",Escherichia coli [3]; strain EC-R17,0.00 unité arbitraire
same,"Aire sous la courbe des pics observés, Protéine ribosomique 50S L33",Escherichia coli [3]; strain EC-R17,0.00 unité arbitraire
same,"Aire sous la courbe des pics observés, SPIRAP (Stationary-Phase-Induced Ribosome-Associated Protein)",Escherichia coli [3]; strain EC-R17,0.00 unité arbitraire
same,Ratio par protéine HdeB/Colistine,Escherichia coli [3]; strain EC-R17,0.00
same,Ratio par protéine L29/Colistine,Escherichia coli [3]; strain EC-R17,0.00
same,Ratio par protéine L31/Colistine,Escherichia coli [3]; strain EC-R17,0.00
same,Ratio par protéine L33/Colistine,Escherichia coli [3]; strain EC-R17,0.00
same,Ratio par protéine SIRAP/Colistine,Escherichia coli [3]; strain EC-R17,0.00
same,Somme des ratios,Escherichia coli [3]; strain EC-R17,0.00
same,classification by sum of the ratios against threshold,Escherichia coli [3]; strain EC-R17,resistant (the strains whose sum of the ratios is strictly below 0.30 will be considered as resistant)
same,Ratio par protéine HdeB/Colistine,Escherichia coli [3]; strain EC-S10,0.15
same,Ratio par protéine L33/Colistine,Escherichia coli [3]; strain EC-S10,0.15
same,Somme des ratios,Escherichia coli [3]; strain EC-S10,0.30 and 0.39
same,classification by sum of the ratios against threshold,Escherichia coli [3]; strain EC-S10,sensitive (the strains whose sum of the ratios is greater than or equal to 0.30 will be considered as sensitive)
same,"Aire sous la courbe des pics observés, Protéine chaperonne de stress acide HdeB",Escherichia coli [3]; strain EC-S15,97.46 unité arbitraire and 60.9 unité arbitraire
same,"Aire sous la courbe des pics observés, Protéine ribosomique 50S L33",Escherichia coli [3]; strain EC-S15,86.71 unité arbitraire and 68.12 unité arbitraire
same,"Aire sous la courbe des pics observés, SPIRAP (Stationary-Phase-Induced Ribosome-Associated Protein)",Escherichia coli [3]; strain EC-S15,0.00 unité arbitraire
same,Ratio par protéine HdeB/Colistine,Escherichia coli [3]; strain EC-S15,0.21
same,Ratio par protéine L29/Colistine,Escherichia coli [3]; strain EC-S15,0.02 and 0.01
same,Ratio par protéine L31/Colistine,Escherichia coli [3]; strain EC-S15,0.02 and 0.04
same,Ratio par protéine L33/Colistine,Escherichia coli [3]; strain EC-S15,0.26 and 0.19
same,Somme des ratios,Escherichia coli [3]; strain EC-S15,0.55 and 0.44
same,classification by sum of the ratios against threshold,Escherichia coli [3]; strain EC-S15,sensitive (the strains whose sum of the ratios is greater than or equal to 0.30 will be considered as sensitive)
same,sensitivity or resistance to colistin by MALDI-TOF,Escherichia coli [3]; strain EC_R16,resistant
same,sensitivity or resistance to colistin by MALDI-TOF,Escherichia coli [3]; strain EC_R17,resistant
same,sensitivity or resistance to colistin by MALDI-TOF,Escherichia coli [3]; strain EC_S10,sensitive
same,sensitivity or resistance to colistin by MALDI-TOF,Escherichia coli [3]; strain EC_S15,sensitive
same,Statuts par microdilution,Escherichia coli [4]; strain EC_R16 (mcr-1 plasmid),Résistante
same,Statuts par microdilution,Escherichia coli [4]; strain EC_R17 (mcr-1 plasmid),Résistante
same,Statuts par microdilution,Escherichia coli [4]; strain EC_S10,Sensible
same,Statuts par microdilution,Escherichia coli [4]; strain EC_S15,Sensible
same,Statuts par microdilution,Klebsiella pneumoniae; strain KP_R9 (chromosomal),Résistante
same,Statuts par microdilution,Klebsiella pneumoniae; strain KP_S10,Sensible
same,Statuts par microdilution,Klebsiella pneumoniae; strain KP_S15,Sensible
same,Statuts par microdilution,Klebsiella pneumoniae; strain KR_R16 (chromosomal),Résistante
same,Sensible ou Résistante,Acinetobacter baumannii [5]; strain AB_R-E105,Résistante
same,Sensible ou Résistante,Acinetobacter baumannii [5]; strain AB_S044,Sensible
same,Sensible ou Résistante,Acinetobacter baumannii [5]; strain AB_S045,Sensible
same,Sensible ou Résistante,Acinetobacter baumannii [5]; strain AB_S046,Sensible
same,Sensible ou Résistante,Pseudomonas aeruginosa [6]; strain PA_RE66,Résistante
same,Sensible ou Résistante,Pseudomonas aeruginosa [6]; strain PA_RE68,Résistante
same,Sensible ou Résistante,Pseudomonas aeruginosa [6]; strain PA_S062,Sensible
same,Sensible ou Résistante,Pseudomonas aeruginosa [6]; strain PA_SE64,Sensible
